According to patent publication US8735406B2, “8-oxodihydropurine derivative” (Dainippon Sumitomo Pharma Co., Ltd., priority 2009, dated 2014):

Biological target: T1, FAAH (Rattus norvegicus, UniProt P97612)
T1 construct: Preparation of Rat Brain Membranes Preparations (FAAH Enzyme Solution); from tissue; host or cells: rat cerebrum (brain membrane preparation)
T1 sequence (P97612 1-579): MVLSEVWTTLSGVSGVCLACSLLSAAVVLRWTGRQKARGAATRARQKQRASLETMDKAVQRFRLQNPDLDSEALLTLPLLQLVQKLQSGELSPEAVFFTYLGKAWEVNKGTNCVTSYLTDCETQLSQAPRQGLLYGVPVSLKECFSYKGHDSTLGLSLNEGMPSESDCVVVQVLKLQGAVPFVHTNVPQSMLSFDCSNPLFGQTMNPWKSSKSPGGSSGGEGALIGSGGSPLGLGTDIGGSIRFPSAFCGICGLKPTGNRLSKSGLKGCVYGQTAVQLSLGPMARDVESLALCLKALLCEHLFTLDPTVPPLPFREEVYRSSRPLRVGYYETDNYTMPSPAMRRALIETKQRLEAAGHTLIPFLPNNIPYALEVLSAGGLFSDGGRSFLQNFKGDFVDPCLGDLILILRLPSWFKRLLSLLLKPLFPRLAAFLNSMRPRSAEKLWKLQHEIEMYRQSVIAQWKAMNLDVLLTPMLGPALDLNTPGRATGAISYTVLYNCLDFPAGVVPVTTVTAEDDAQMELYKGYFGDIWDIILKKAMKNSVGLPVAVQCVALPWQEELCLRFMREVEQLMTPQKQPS
Assay: Determination of FAAH inhibitory activity in rat (rat brain membrane preparations, [3H]-anandamide hydrolysis)
Assay type: biochemical
Details: rat brain membrane preparations; for inhibition at 0.1 µM: 100 nM test substance, read-out: FAAH Inhibition, Inhibition Rate at 100 nM; for IC50: test substance 0.1 nM to 1 μM, read-out: FAAH Inhibition IC50
Method in brief: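 Compounds tested from 0.1 nM to 1 μM to derive IC50 against FAAH hydrolysis in rat brain membrane preparations (100 μg/mL). A 10-min 37 °C preincubation was followed by 10 min with [3H]-anandamide (2 nM) mixed with 2 μM unlabelled anandamide. Radioactive ethanolamine was extracted into the water/methanol layer and counted.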

SMILES	inhibition at 0.1 µM	IC50
COCc1ncc2c(n1)n(C)c(=O)n2C(=O)N1CC(c2ccc(F)cc2)C1 [Example 439, 7-{[3-(4-Fluorophenyl)azetidin-1-yl]carbonyl}-2-(methoxymethyl)-9-methyl-7,9-dihydro-8H-purine-8-one]	104%	5 nM
COCc1ncc2c(n1)n(C)c(=O)n2C(=O)N1CC(c2cccc(F)c2)C1 [Example 440, 7-{[3-(3-Fluorophenyl)azetidin-1-yl]carbonyl}-2-(methoxymethyl)-9-methyl-7,9-dihydro-8H-purine-8-one]	88%	21 nM
COCc1ncc2c(n1)n(C)c(=O)n2C(=O)N1CC(c2ccccc2F)C1 [Example 441, 7-{[3-(2-Fluorophenyl)azetidin-1-yl]carbonyl}-2-(methoxymethyl)-9-methyl-7,9-dihydro-8H-purine-8-one]	74%	37 nM
COCc1ncc2c(n1)n(C)c(=O)n2C(=O)N1CC(c2cccc(C(F)(F)F)c2)C1 [Example 443, 2-(Methoxymethyl)-9-methyl-7-({[3-(3-trifluoromethyl)phenyl]azetidin-1-yl}carbonyl)-7,9-dihydro-8H-purine-8-one]	98%	7 nM
COCc1ncc2c(n1)n(C)c(=O)n2C(=O)N1CC(c2ccccc2Cl)C1 [Example 453, 7-{[3-(2-Chlorophenyl)azetidin-1-yl]carbonyl}-2-(methoxymethyl)-9-methyl-7,9-dihydro-8H-purine-8-one]	90%	12 nM
COCc1ncc2c(n1)n(C)c(=O)n2C(=O)N1CC(c2ccc(F)cc2F)C1 [Example 454, 7-{[3-(2,4-Difluorophenyl)azetidin-1-yl]carbonyl}-2-(methoxymethyl)-9-methyl-7,9-dihydro-8H-purine-8-one]	89%	6 nM
COCc1ncc2c(n1)n(C)c(=O)n2C(=O)N1CC(c2ccc(F)c(C)c2)C1 [Example 455, 7-{[3-(4-Fluoro-3-methylphenyl)azetidin-1-yl]carbonyl}-2-(methoxymethyl)-9-methyl-7,9-dihydro-8H-purine-8-one]	104%	1 nM
COCc1ncc2c(n1)n(C)c(=O)n2C(=O)N1CC(c2ccc(OCc3ccccc3)cc2)C1 [Example 456, 7-({3-[4-(Benzyloxy)phenyl]azetidin-1-yl}carbonyl)-2-(methoxymethyl)-9-methyl-7,9-dihydro-8H-purine-8-one]	99%	1 nM
COCc1ncc2c(n1)n(C)c(=O)n2C(=O)N1CC(c2ccc(OC(F)(F)F)cc2)C1 [Example 458, 2-(Methoxymethyl)-9-methyl-7-({3-[4-(trifluoromethoxy)phenyl]azetidin-1-yl}carbonyl)-7,9-dihydro-8H-purine-8-one]	120%	1 nM
COCc1ncc2c(n1)n(C)c(=O)n2C(=O)N1CC(c2cccc(OC)c2)C1 [Example 459, 2-(Methoxymethyl)-7-{[3-(3-methoxyphenyl)azetidin-1-yl]carbonyl}-9-methyl-7,9-dihydro-8H-purine-8-one]	108%	9 nM
CCOCc1ncc2c(n1)n(C)c(=O)n2C(=O)N1CC(c2ccccc2)C1 [Example 460, 2-(Ethoxymethyl)-9-methyl-7-[(3-phenylazetidin-1-yl)carbonyl]-7,9-dihydro-8H-purine-8-one]	108%	11 nM
CCOCc1ncc2c(n1)n(C)c(=O)n2C(=O)N1CC(c2cccc(F)c2)C1 [Example 462, 2-(Ethoxymethyl)-7-{[3-(3-fluorophenyl)azetidin-1-yl]carbonyl}-9-methyl-7,9-dihydro-8H-purine-8-one]	113%	10 nM
CCOCc1ncc2c(n1)n(C)c(=O)n2C(=O)N1CC(c2ccc(OCC)cc2)C1 [Example 463, 2-(Ethoxymethyl)-7-{[3-(4-ethoxyphenyl)azetidin-1-yl]carbonyl}-9-methyl-7,9-dihydro-8H-purine-8-one]	136%	10 nM
CCOCc1ncc2c(n1)n(C)c(=O)n2C(=O)N1CC(c2ccccc2F)C1 [Example 465, 2-(Ethoxymethyl)-7-{[3-(2-fluorophenyl)azetidin-1-yl]carbonyl}-9-methyl-7,9-dihydro-8H-purine-8-one]	96%	10 nM
COCc1ncc2c(n1)n(C)c(=O)n2C(=O)N1CC[C@@H](Oc2ccccc2F)C1 [Example 474]	71%	54 nM
COCc1ncc2c(n1)n(C)c(=O)n2C(=O)N1CC[C@@H](Oc2cccc(C)c2)C1 [Example 475]	46%	–
COCc1ncc2c(n1)n(C)c(=O)n2C(=O)N1CC[C@@H](Oc2ccccc2C)C1 [Example 476]	76%	57 nM
COCc1ncc2c(n1)n(C)c(=O)n2C(=O)N1CC[C@H](Oc2ccccc2)C1 [Example 477]	88%	26 nM
COCc1ncc2c(n1)n(C)c(=O)n2C(=O)N1CC(Oc2ccccc2C)C1 [Example 478]	46%	118 nM
COCc1ncc2c(n1)n(C)c(=O)n2C(=O)N1CC(Oc2ccccc2F)C1 [Example 479, 7-{[3-(2-Fluorophenoxy)azetidin-1-yl]carbonyl}-2-(methoxymethyl)-9-methyl-7,9-dihydro-8H-purine-8-one]	50%	101 nM
COCc1ncc2c(n1)n(C)c(=O)n2C(=O)N1CC[C@@H](Oc2ccc(F)cc2)C1 [Example 480, 7-{[(3R)-3-(4-Fluorophenoxy)pyrrolidin-1-yl]carbonyl}-2-(methoxymethyl)-9-methyl-7,9-dihydro-8H-purine-8-one]	88%	83 nM

Other lines, results leading:

inhibition at 0.1 µM	IC50	SMILES
102%	3 nM	COCc1ncc2c(n1)n(C)c(=O)n2C(=O)N1CC[C@H](Oc2ccc(F)cc2)C1 [Example 481]
104%	10 nM	COCc1ncc2c(n1)n(C)c(=O)n2C(=O)N1CC[C@H](Oc2cccc(F)c2)C1 [Example 482, 7-{[(3S)-3-(3-Fluorophenoxy)pyrrolidin-1-yl]carbonyl}-2-(methoxymethyl)-9-methyl-7,9-dihydro-8H-purine-8-one]
110%	10 nM	COCc1ncc2c(n1)n(C)c(=O)n2C(=O)N1CC[C@H](Oc2ccccc2F)C1 [Example 483, 7-{[(3S)-3-(2-Fluorophenoxy)pyrrolidin-1-yl]carbonyl}-2-(methoxymethyl)-9-methyl-7,9-dihydro-8H-purine-8-one]
86%	9 nM	COCc1ncc2c(n1)n(C)c(=O)n2C(=O)N1CC[C@H](Oc2ccc(C)cc2)C1 [Example 484, 2-(Methoxymethyl)-9-methyl-7-{[(3S)-3-(4-methylphenoxy)pyrrolidin-1-yl]carbonyl}-7,9-dihydro-8H-purine-8-one]
112%	3 nM	COCc1ncc2c(n1)n(C)c(=O)n2C(=O)N1CC[C@H](Oc2cccc(C)c2)C1 [Example 485, 2-(Methoxymethyl)-9-methyl-7-{[(3S)-3-(3-methylphenoxy)pyrrolidin-1-yl]carbonyl}-7,9-dihydro-8H-purine-8-one]
113%	2 nM	COCc1ncc2c(n1)n(C)c(=O)n2C(=O)N1CC[C@H](Oc2ccccc2C)C1 [Example 486, 2-(Methoxymethyl)-9-methyl-7-{[(3S)-3-(2-methylphenoxy)pyrrolidin-1-yl]carbonyl}-7,9-dihydro-8H-purine-8-one]
99%	15 nM	COCc1ncc2c(n1)n(C)c(=O)n2C(=O)N1CC[C@@H](Oc2cccc(Cl)c2)C1 [Example 487, 7-{[(3R)-3-(3-Chlorophenoxy)pyrrolidin-1-yl]carbonyl}-2-(methoxymethyl)-9-methyl-7,9-dihydro-8H-purine-8-one]
74%	43 nM	COCc1ncc2c(n1)n(C)c(=O)n2C(=O)N1CC[C@@H](Oc2ccccc2)C1 [Example 488, 2-(Methoxymethyl)-9-methyl-7-{[(3R)-3-phenoxypyrrolidin-1-yl]carbonyl}-7,9-dihydro-8H-purine-8-one]
98%	1 nM	COCc1ncc2c(n1)n(C)c(=O)n2C(=O)N1CC[C@H](Oc2ccc(Cl)cc2)C1 [Example 489, 7-{[(3S)-3-(4-Chlorophenoxy)pyrrolidin-1-yl]carbonyl}-2-(methoxymethyl)-9-methyl-7,9-dihydro-8H-purine-8-one]
97%	2 nM	COCc1ncc2c(n1)n(C)c(=O)n2C(=O)N1CC[C@H](Oc2cccc(Cl)c2)C1 [Example 490, 7-{[(3S)-3-(3-Chlorophenoxy)pyrrolidin-1-yl]carbonyl}-2-(methoxymethyl)-9-methyl-7,9-dihydro-8H-purine-8-one]
